From US20230087342A1, “AZEPANE DERIVATIVE” (Nippon Chemiphar Co., Ltd., priority 2019, published 2023)
Read-outs that look alike come from different tables or passages of the source.

How the values were obtained:
Metabolic stability test = assay type: in vitro ADME; conditions: human liver microsomes, 0 to 30 minutes; a hydrochloride was used
Protocol: To determine the unchanged product-residual ratio of the test compound in the reaction sample, human liver microsomes and the test compound were reacted for a predetermined time (0 to 30 minutes). The unchanged product-residual ratio at a reaction time of 0 hours was considered 100%, the residual ratio after incubation was log-linear plotted with respect to the time, a regression line (y=100 e^−kt, k=slope of the line: elimination rate constant) was determined, and the metabolic clearance CLint (mL/min/kg) was calculated using the following formula.
CLint*=k (−min)×45 (mg MS protein/g liver)×21 (g liver/kg)/MS protein (mg MS protein/mL)
*: Yamazaki S.; Skaptason J.; Romero D, Vekich S.; Jones HM.; Tan W.; Wilner KD.; Koudriakova T. Drug Metab. Dispos. 2011 March; 39 (3): 383-393.

human κ opioid receptors = target: T1, human κ opioid receptors (Homo sapiens, UniProt P41145); assay: Opioid receptor function test (Lance Ultra cAMP kit, agonist activity); assay type: cell-based; conditions: CHO cells expressing human κ opioid receptors, 10 μM forskolin, 30 minutes
T1 construct: host or cells: CHO cells
T1 sequence (P41145 whole entry): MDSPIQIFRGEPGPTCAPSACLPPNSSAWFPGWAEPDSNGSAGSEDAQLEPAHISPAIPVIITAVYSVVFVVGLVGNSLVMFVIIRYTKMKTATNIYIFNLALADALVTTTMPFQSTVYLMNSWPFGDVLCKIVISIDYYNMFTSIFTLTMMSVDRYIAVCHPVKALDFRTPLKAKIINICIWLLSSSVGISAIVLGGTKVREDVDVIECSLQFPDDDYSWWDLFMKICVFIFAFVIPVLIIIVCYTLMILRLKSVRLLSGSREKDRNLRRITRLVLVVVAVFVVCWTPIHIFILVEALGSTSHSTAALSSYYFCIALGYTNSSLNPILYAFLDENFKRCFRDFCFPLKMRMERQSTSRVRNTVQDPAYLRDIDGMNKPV
Summary of the method: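 CHO cells expressing human κ opioid receptor incubated 30 min with test compound (10^−14 to 10^−7 M) and 10 μM forskolin in HSS/5 mM HEPES pH 7.4 with 0.5 mM IBMX and 0.1% SA. cAMP measured by TR-FRET (Lance Ultra) 1 h after detection reagent addition.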

ICR male mice = assay: Mouse acetic acid writhing test; assay type: in vivo; conditions: hydrochloride; for ED50: Mus musculus, read-out: ED50 value (writhing suppressing effect)
Protocol: Mouse Acetic Acid Writhing Test
The analgesic effect of the test compound was evaluated by an acetic acid writhing test. For the experiment, ICR male mice were used and acclimated to a plastic open field for 30 minutes before starting the test. After acclimation, the mice were administered with the test compound (30 to 3000 μg/kg) or water for injection subcutaneously or orally, and once returned to the open field. Thirty minutes after the administration of the test compound, a 0.6% aqueous acetic acid solution was additionally administered to the same mice by intraperitoneal administration. From 10 minutes after administration of the 0.6% aqueous acetic acid solution, the number of writhing reactions (writhing reactions in which the mouse stretches while pressing the abdominal cavity against the floor) induced in the mice was measured for 10 minutes, and the number of writhing reactions was compared with that of a control group (water for injection-administrated group) to evaluate the analgesic effect of the test compound.

| Structure (SMILES) | CLint scaled (Metabolic stability test) [L/h/kg] | EC50 (human κ opioid receptors) [nM] | ED50 (ICR male mice; Oral) [mg/kg] | Writhing suppression rate (ICR male mice; Subcutaneous, dose 30 (μg/kg)) | further results |
| --- | --- | --- | --- | --- | --- |
| O=C(Cc1ccccn1)N1CC[C@]23CCN(CC4CC4)[C@H](Cc4ccc(O)cc42)[C@]3(O)CC1 [Example 22, 1-((5aS,6R,11bR)-14-(cyclopropylmethyl)-5a,10-dihydroxy-1,2,5,5a,6,7-hexahydro-6,11b-(epiminoethano)naphtho[1,2-d]azepin-3(4H)-yl)-2-(pyridin-2-yl)ethan-1-one] | 0.432 | 0.13 | 0.0152 | – | Writhing suppression rate (ICR male mice; Oral, dose 30 (μg/kg)): + (40 ≤ % <60: +); Writhing suppression rate (ICR male mice; Oral, dose 300 (μg/kg)): ++ (60 ≤ % <80: ++) |
| Oc1ccc2c(c1)[C@@]13CCN(CCc4cscn4)CC[C@@]1(O)[C@@H](C2)N(CC1CC1)CC3 [Example 34, (5aS,6R,11bS)-14-(cyclopropylmethyl)-3-(2-(thiazol-4-yl)ethyl)-2,3,4,5,6,7-hexahydro-6,11b-(epiminoethano)naphtho[1,2-d]azepine-5a,10(1H)-diol] | – | 0.04 | – | ++ (60 ≤ % <80: ++) | – |
| Oc1ccc2c(c1)[C@@]13CCN(CCn4cccn4)CC[C@@]1(O)[C@@H](C2)N(CC1CC1)CC3 [Example 45, (5aS,6R,11bS)-3-(2-(1H-pyrazol-1-yl)ethyl)-14-(cyclopropylmethyl)-2,3,4,5,6,7-hexahydro-6,11b-(epiminoethano)naphtho[1,2-d]azepine-5a,10(1H)-diol] | 0.27 | 0.17 | – | ++ (60 ≤ % <80: ++) | – |
| Cc1cnn(CCN2CC[C@]34CCN(CC5CC5)[C@H](Cc5ccc(O)cc53)[C@]4(O)CC2)c1 [Example 50, (5aS,6R,11bS)-14-(cyclopropylmethyl)-3-(2-(4-methyl-1H-pyrazol-1-yl)ethyl)-2,3,4,5,6,7-hexahydro-6,11b-(epiminoethano)naphtho[1,2-d]azepine-5a,10(1H)-diol] | 0.522 | 0.027 | 0.21 | – | Writhing suppression rate (ICR male mice; Oral, dose 300 (μg/kg)): + (40 ≤ % <60: +); Writhing suppression rate (ICR male mice; Oral, dose 1000 (μg/kg)): +++ (80 ≤ %: +++) |
| Oc1ccc2c(c1)[C@@]13CCN(CCc4ccccn4)CC[C@@]1(O)[C@@H](C2)N(CC1CC1)CC3 [Example 77, (5aS,6R,11bS)-14-(cyclopropylmethyl)-3-(2-(pyridin-2-yl)ethyl)-2,3,4,5,6,7-hexahydro-6,11b-(epiminoethano)naphtho[1,2-d]azepine-5a,10(1H)-diol] | 0.402 | 0.026 | – | + (40 ≤ % <60: +) | ED50 (ICR male mice; sc, Subcutaneous): 0.0125 mg/kg; Writhing suppression rate (ICR male mice; Subcutaneous, dose 300 (μg/kg)): +++ (80 ≤ %: +++) |
| Cc1cc2c(cc1O)[C@@]13CCN(C(=O)Cc4ccccn4)CC[C@@]1(O)[C@@H](C2)N(CC1CC1)CC3 [Example 291, 1-((5aS,6R,11bR)-14-(cyclopropylmethyl)-5a,10-dihydroxy-9-methyl-1,2,5,5a,6,7-hexahydro-6,11b-(epiminoethano)naphtho[1,2-d]azepin-3(4H)-yl)-2-(pyridin-2-yl)ethan-1-one] | 0.48 | 0.55 | – | – | – |
| O=C(Cc1ccccn1)N1CC[C@]23CCN(CC4CC4)[C@H](Cc4cc(Cl)c(O)cc42)[C@]3(O)CC1 [Example 308, 1-((5aS,6R,11bR)-9-chloro-14-(cyclopropylmethyl)-5a,10-dihydroxy-1,2,5,5a,6,7-hexahydro-6,11b-(epiminoethano)naphtho[1,2-d]azepin-3(4H)-yl)-2-(pyridin-2-yl)ethan-1-one] | 0.54 | 0.6 | 1.42 | – | Writhing suppression rate (ICR male mice; Oral, dose 1000 (μg/kg)): + (40 ≤ % <60: +); Writhing suppression rate (ICR male mice; Oral, dose 3000 (μg/kg)): ++ (60 ≤ % <80: ++) |
| Cc1cnn(CCN2CC[C@]34CCN(CC5CC5)[C@H](Cc5cc(Cl)c(O)cc53)[C@]4(O)CC2)c1 [Example 326, (5aS,6R,11bS)-9-chloro-14-(cyclopropylmethyl)-3-(2-(4-methyl-1H-pyrazol-1-yl)ethyl)-2,3,4,5,6,7-hexahydro-6,11b-(epiminoethano)naphtho[1,2-d]azepine-5a,10(1H)-diol] | 0.654 | 0.18 | – | – | – |
| COc1c(O)ccc2c1[C@@]13CCN(CCn4cc(C)cn4)CC[C@@]1(O)[C@@H](C2)N(CC1CC1)CC3 [Example 332, (5aS,6R,11bS)-14-(cyclopropylmethyl)-11-methoxy-3-(2-(4-methyl-1H-pyrazol-1-yl)ethyl)-2,3,4,5,6,7-hexahydro-6,11b-(epiminoethano)naphtho[1,2-d]azepine-5a,10(1H)-diol] | 0.552 | 0.64 | – | – | – |
